One may read the EC50 as the midpoint of the concentration-response curve. By IC50 is commonly meant the point on the concentration scale where inhibition reaches its midpoint.

Counter-ions that a name gives are not always drawn. Like-named read-outs stand apart in the source and are kept apart here.

Results on 20 compounds are retold here after patent US9018214B2, “Bicyclic heterocycle compounds and their uses in therapy” (Astex Therapeutics Limited, priority 2011, dated 2015).

The subject of assay [1] is EVSA-T (human breast carcinoma). The experiment in a line: Anti-proliferative activity, Alamar Blue assay, EVSA-T. The class given is cell-based. To be noted: Homo sapiens, EVSA-T. A general note: The colour change of resazurin is a common sign of viable cells or microbes.
Assay [2] addresses BIR3 domain of human cIAP-1 (residues 267-363) (Homo sapiens (Human), UniProt Q13490). Put plainly: cIAP-1 in vitro competitive displacement binding assay (fluorescence polarization; Probe A AVPIK(5&6FAM)-amide or Probe B AbuRPFK(5&6FAM)-amide). To be noted: for inhibition at 0.01 µM / inhibition at […]: 3 h, read-out: IC50 or PI cIAP1: PI. Background: In fluorescence polarisation assays a small probe gives low polarisation when free and higher when bound to something large.

In assay [3] the target is BIR3 domain of human XIAP (residues 252-350) (Homo sapiens (Human), UniProt P98170). Put plainly: XIAP in vitro competitive displacement binding assay (fluorescence polarization). To be noted: for IC50: read-out: IC50 or PI Xiap: IC50; for inhibition at 0.04 µM: 1 h, read-out: IC50 or PI Xiap: PI.
Where [4] appears, read: 72 hours, Alamar Blue, read-out: EVSA-T prolif (EC50).
Where [5] appears, read: 72 h, read-out: EVSA-T prolif (EC50).
The mark [6] stands for this setting: read-out: IC50 or PI cIAP1: IC50.
Setting [7] is: Probe B AbuRPFK(5&6FAM)-amide, read-out: IC50 or PI cIAP1: IC50.

As for `C[C@@H]1CN(CC(=O)N2CC(C)(C)c3cnc(Cc4ccccc4)cc32)[C@@H](Cn2cccn2)CN1` [Example 112, 1-(6-Benzyl-3,3-dimethyl-2,3-dihydro-pyrrolo[3,2-c]pyridin-1-yl)-2-((2R,5R)-5-methyl-2-pyrazol-1-ylmethyl-piperazin-1-yl)-ethanone], the EC50 in assay [1] (setting [4]) was 95 nM. Also, the inhibition at 0.01 µM in assay [2] (Probe B, @ 0.01 μM) is 69%. Further, in assay [3], the IC50 was determined as 67 nM.

On to `COC[C@H]1CN[C@H](C)CN1CC(=O)N1CC(C)(C)c2cnc(C3CCCCC3)cc21` [Example 118, 1-{6-Cyclohexyl-3,3-dimethyl-1H,2H,3H-pyrrolo[3,2-c]pyridin-1-yl}-2-[(2R,5R)-2-(methoxymethyl)-5-methylpiperazin-1-yl]ethan-1-one dihydrochloride], for which, in assay [1] (setting [5]), the EC50 is 3400 nM. In addition, the results for the IC50 in assay [2] (setting [6]) and in assay [3] were 240 nM and 710 nM, respectively.

With `COC[C@H]1CN[C@H](C)CN1CC(=O)N1CC2(Cc3ccccc3C2)c2ccc(Cl)cc21` [Example 120, 1-{6′-Chloro-1,1′,2′,3-tetrahydrospiro[indene-2,3′-indole]-1′-yl}-2-[(2R,5R)-2-(methoxymethyl)-5-methylpiperazin-1-yl]ethan-1-one], the EC50 in assay [1] (setting [4]) worked out at 6800 nM. For the same compound, the IC50 was 170 nM in assay [2] (setting [7]) and 260 nM in assay [3].

Consider `COC[C@H]1CN[C@H](C)CN1CC(=O)N1CC(C)(C)c2cnc(-c3ccsc3)cc21` [Example 126, 1-[3,3-Dimethyl-6-(thiophen-3-yl)-1H,2H,3H-pyrrolo[3,2-c]pyridin-1-yl]-2-[(2R,5R)-2-(methoxymethyl)-5-methylpiperazin-1-yl]ethan-1-one dihydrochloride], for which the EC50 is below 10000 nM in assay [1] (72 h, read-out: EC50, inhibition of cell growth) and 1800 nM in assay [1] (setting [5]). The IC50 in assay [2] (setting [6]) worked out at 86 nM; in assay [3] it was 380 nM.

On to `C[C@@H]1CN(CC(=O)N2CC(C)(C)c3cnc(Cc4ccccc4)cc32)[C@@H](C(=O)N2CCCC2)CN1` [Example 131, 1-{6-Benzyl-3,3-dimethyl-1H,2H,3H-pyrrolo[3,2-c]pyridin-1-yl}-2-[(2R,5R)-5-methyl-2-[(pyrrolidin-1-yl)carbonyl]piperazin-1-yl]ethan-1-one dihydrochloride], for which the EC50 in assay [1] (setting [5]) came to 88 nM. For the same compound, in assay [2], the inhibition at 0.01 µM worked out at 63%. In addition, the IC50 in assay [3] was determined as 130 nM.

Regarding `C[C@@H]1CN(CC(=O)N2CC(C)(C)c3cnc(Cc4ccccc4)cc32)[C@@H](C(=O)N2CCCCC2)CN1` [Example 133, 1-{6-Benzyl-3,3-dimethyl-1H,2H,3H-pyrrolo[3,2-c]pyridin-1-yl}-2-[(2R,5R)-5-methyl-2-[(piperidin-1-yl)carbonyl]piperazin-1-yl]ethan-1-one dihydrochloride], in assay [1] (setting [5]), the EC50 is 110 nM. Further, the inhibition at 0.01 µM in assay [2] was 71%. In assay [3], the IC50 was 91 nM.

`CCC1(CC)CN(C(=O)CN2C[C@@H](C)NC[C@@H]2C(=O)N2CCOCC2)c2cc(Cl)ccc21` [Example 135, 1-(6-Chloro-3,3-diethyl-2,3-dihydro-1H-indol-1-yl)-2-[(2R,5R)-5-methyl-2-[(morpholin-4-yl)carbonyl]piperazin-1-yl]ethan-1-one hydrochloride]: the EC50 in assay [1] (setting [4]) was found to be 1600 nM. Further, the IC50 stood at 79 nM in assay [2] (setting [7]) and 400 nM in assay [3].

For `C[C@@H]1CN(CC(=O)N2CC3(Cc4ccccc4C3)c3ccc(Cl)cc32)[C@@H](Cn2cccn2)CN1` [Example 142, 1-{6′-Chloro-1,1′,2′,3-tetrahydrospiro[indene-2,3′-indole]-1′-yl}-2-[(2R,5R)-5-methyl-2-(1H-pyrazol-1-ylmethyl)piperazin-1-yl]ethan-1-one hydrochloride], in assay [1] (at 1 μM, read-out: EVSA-T prolif: % inhibition), the inhibition at 1 µM was 20%. The figures for the concentration for half-maximal inhibition (IC50) in assay [2] (setting [7]) and in assay [3] were 150 nM and 220 nM, respectively.

`C[C@@H]1CN(CC(=O)N2CC(C)(c3ccccc3)c3ccc(C#N)cc32)[C@@H](Cn2cccn2)CN1` (stereo partly drawn) [Example 143, 3-Methyl-1-{2-[(2R,5R)-5-methyl-2-(1H-pyrazol-1-ylmethyl)piperazin-1-yl]acetyl}-3-phenyl-2,3-dihydro-1H-indole-6-carbonitrile hydrochloride]: the EC50 in assay [1] (setting [4]) worked out at 8800 nM. Further, the IC50 in assay [2] (setting [7]) was 200 nM; in assay [3] it was 100 nM.

With `COC[C@H]1CN[C@H](C)CN1CC(=O)N1CC(C)(C)c2cnc(-c3ccoc3)cc21` [Example 145, 1-[6-(Furan-3-yl)-3,3-dimethyl-1H,2H,3H-pyrrolo[3,2-c]pyridin-1-yl]-2-[(2R,5R)-2-(methoxymethyl)-5-methylpiperazin-1-yl]ethan-1-one dihydrochloride], the EC50 in assay [1] (setting [5]) worked out at 9800 nM. Besides, the IC50 in assay [2] (setting [6]) was determined as 180 nM; in assay [3], 1000 nM.

Consider `COC[C@H]1CN[C@H](C)CN1CC(=O)N1CC(C)(C)c2cnc(C(F)(F)c3ccccc3)cc21` [Example 146, 1-{6-[Difluoro(phenyl)methyl]-3,3-dimethyl-1H,2H,3H-pyrrolo[3,2-c]pyridin-1-yl}-2-[(2R,5R)-2-(methoxymethyl)-5-methylpiperazin-1-yl]ethan-1-one hydrochloride], for which the EC50 in assay [1] (setting [4]) came out at 640 nM. In addition, the results for the IC50 in assay [2] (setting [7]) and in assay [3] were 17 nM and 75 nM, respectively.

Consider `COC[C@H]1CN[C@H](C)CN1CC(=O)N1CC(C)(C)c2cnc(-c3ccc(C)s3)cc21` [Example 148, 1-[3,3-Dimethyl-6-(5-methylthiophen-2-yl)-1H,2H,3H-pyrrolo[3,2-c]pyridin-1-yl]-2-[(2R,5R)-2-(methoxymethyl)-5-methylpiperazin-1-yl]ethan-1-one dihydrochloride], for which the EC50 in assay [1] (setting [5]) was found to be 2000 nM. In addition, the IC50 was determined as 45 nM in assay [2] (setting [6]) and 360 nM in assay [3].

Take `C[C@@H]1CN(CC(=O)N2CC(C)(c3ccccc3)c3ccc(C#N)cc32)[C@@H](C(=O)N2CCOCC2)CN1` (stereo partly drawn) [Example 149, 3-Methyl-1-{2-[(2R,5R)-5-methyl-2-[(morpholin-4-yl)carbonyl]piperazin-1-yl]acetyl}-3-phenyl-2,3-dihydro-1H-indole-6-carbonitrile hydrochloride]: the EC50 in assay [1] (setting [4]) came to 9200 nM. Besides, the values for the IC50 in assay [2] (setting [7]) and in assay [3] were 130 nM and 55 nM, respectively.

`C[C@@H]1CN(CC(=O)N2C[C@@](C)(c3ccccc3)c3ccc(C#N)cc32)[C@@H](C(=O)N2CCOCC2)CN1` [Example 152, (3S)-3-Methyl-1-{2-[(2R,5R)-5-methyl-2-[(morpholin-4-yl)carbonyl]piperazin-1-yl]acetyl}-3-phenyl-2,3-dihydro-1H-indole-6-carbonitrile]: in assay [1] (setting [4]), the EC50 worked out at 3700 nM. The IC50 in assay [2] (setting [7]) was found to be 110 nM; in assay [3], 65 nM.

Take `C[C@@H]1CN(CC(=O)N2C[C@](C)(c3ccccc3)c3ccc(C#N)cc32)[C@@H](C(=O)N2CCOCC2)CN1` [Example 153, (3R)-3-Methyl-1-{2-[(2R,5R)-5-methyl-2-[(morpholin-4-yl)carbonyl]piperazin-1-yl]acetyl}-3-phenyl-2,3-dihydro-1H-indole-6-carbonitrile]: the EC50 in assay [1] (setting [4]) was determined as 4000 nM. In addition, the IC50 in assay [2] (setting [7]) is 160 nM. The inhibition at 0.04 µM in assay [3] (@ 0.04 μM) was 54%.

Take `C[C@@H]1CN(CC(=O)N2CC(C)(C)c3cnc(Cc4ccccc4)cc32)[C@@H](Cn2cc(F)cn2)CN1` [Example 157, 1-{6-Benzyl-3,3-dimethyl-1H,2H,3H-pyrrolo[3,2-c]pyridin-1-yl}-2-[(2R,5R)-2-[(4-fluoro-1H-pyrazol-1-yl)methyl]-5-methylpiperazin-1-yl]ethan-1-one hydrochloride]: the EC50 in assay [1] (setting [4]) was determined as 95 nM. For the same compound, the inhibition at […] in assay [2] (Probe B, @ 0.012 μM) came to 78%. Also, in assay [3], the IC50 was determined as 65 nM.

`C[C@@H]1CN(CC(=O)N2CC(C)(C)c3cnc(C(F)(F)c4ccccc4)cc32)[C@@H](C(=O)N(C)C)CN1` [Example 158, (2R,5R)-1-(2-{6-[Difluoro(phenyl)methyl]-3,3-dimethyl-1H,2H,3H-pyrrolo[3,2-c]pyridin-1-yl}-2-oxoethyl)-N,N,5-trimethylpiperazine-2-carboxamide dihydrochloride]: the EC50 in assay [1] (setting [5]) was 300 nM. Further, the inhibition at 0.01 µM in assay [2] was 51%. Also, the IC50 in assay [3] worked out at 49 nM.

Turning to `Cc1cnn(C[C@H]2CN[C@H](C)CN2CC(=O)N2CC(C)(C)c3cnc(C(F)(F)c4ccccc4)cc32)c1` [Example 159, 1-{6-[Difluoro(phenyl)methyl]-3,3-dimethyl-1H,2H,3H-pyrrolo[3,2-c]pyridin-1-yl}-2-[(2R,5R)-5-methyl-2-[(4-methyl-1H-pyrazol-1-yl)methyl]piperazin-1-yl]ethan-1-one dihydrochloride], the EC50 in assay [1] (setting [4]) stood at 120 nM. Besides, the inhibition at […] in assay [2] came to 72%. The inhibition at 0.04 µM in assay [3] came out at 56%.

`Cc1cnn(C[C@H]2CN[C@H](C)CN2CC(=O)N2CC3(Cc4ccccc4C3)c3ccc(C#N)cc32)c1` [Example 161, 1′-{2-[(2R,5R)-5-Methyl-2-[(4-methyl-1H-pyrazol-1-yl)methyl]piperazin-1-yl]acetyl}-1,1′,2′,3-tetrahydrospiro[indene-2,3′-indole]-6′-carbonitrile]: the EC50 in assay [1] (setting [4]) was found to be 1700 nM. For the same compound, the IC50 is below 1000 nM in assay [2], 110 nM in assay [2] (setting [7]) and 60 nM in assay [3].

As to `COC[C@H]1CN[C@H](C)CN1CC(=O)N1CC(C)(c2cccnc2)c2ccc(Cc3ccccc3)cc21` (stereo partly drawn) [Example 163, 1-[6-Benzyl-3-methyl-3-(pyridin-3-yl)-2,3-dihydro-1H-indol-1-yl]-2-[(2R,5R)-2-(methoxymethyl)-5-methylpiperazin-1-yl]ethan-1-one hydrochloride], in assay [1] (setting [4]), the EC50 was 450 nM. In addition, the IC50 in assay [2] was below 1000 nM; in assay [2] (setting [7]), 13 nM; in assay [3], 160 nM.
